Test results: ChEMBL document CHEMBL3797052 (Eur J Med Chem, 2016)

Test system: not listed separately
Experiment: Antiproliferative activity against human RPMI8226 cells assessed as growth inhibition after 48 hrs by sulforhodamine B assay
Assay type: functional
Details: RPMI-8226, 48 h

Q: What does the source list for `CNC(=O)c1cc(Oc2ccc3nc(NC(=O)Nc4ccc(Cl)c(Cl)c4)sc3c2)ccn1`?
A: LC50: > 100 µM; TGI: > 100 µM

Test system: MDA-MB-231
Experiment: Antiproliferative activity against human MDA-MB-231 cells assessed as growth inhibition after 48 hrs by sulforhodamine B assay
Assay type: functional
Details: MDA-MB-231, 48 h

Q: For `CNC(=O)c1cc(Oc2ccc3nc(NC(=O)Nc4ccc(Cl)c(Cl)c4)sc3c2)ccn1`, which GI50 is on record?
A: 2.15 µM

Q: What about the TGI of the same compound?
A: 6.43 µM

Same assay, conditions: MDA-MB-231, 48 h, read-out: LC50 (the source's name)

Q: Which CC50 does the source give for `CNC(=O)c1cc(Oc2ccc3nc(NC(=O)Nc4ccc(Cl)c(Cl)c4)sc3c2)ccn1` here?
A: > 100 µM

Test system: not listed separately
Experiment: Antiproliferative activity against human Hs 578T cells assessed as growth inhibition after 48 hrs by sulforhodamine B assay
Assay type: functional
Details: not given

Q: With `CNC(=O)c1cc(Oc2ccc3nc(NC(=O)Nc4ccc(Cl)c(Cl)c4)sc3c2)ccn1` as the compound, how does the GI50 read?
A: 2.77 µM

Q: And the TGI?
A: 6.66 µM

Same assay, conditions: read-out: LC50 (the source's name)

Q: Which CC50 does the source give for `CNC(=O)c1cc(Oc2ccc3nc(NC(=O)Nc4ccc(Cl)c(Cl)c4)sc3c2)ccn1` here?
A: > 100 µM

Target: CYP2C9 (Homo sapiens, UniProt P11712)
Sequence (P11712 whole entry): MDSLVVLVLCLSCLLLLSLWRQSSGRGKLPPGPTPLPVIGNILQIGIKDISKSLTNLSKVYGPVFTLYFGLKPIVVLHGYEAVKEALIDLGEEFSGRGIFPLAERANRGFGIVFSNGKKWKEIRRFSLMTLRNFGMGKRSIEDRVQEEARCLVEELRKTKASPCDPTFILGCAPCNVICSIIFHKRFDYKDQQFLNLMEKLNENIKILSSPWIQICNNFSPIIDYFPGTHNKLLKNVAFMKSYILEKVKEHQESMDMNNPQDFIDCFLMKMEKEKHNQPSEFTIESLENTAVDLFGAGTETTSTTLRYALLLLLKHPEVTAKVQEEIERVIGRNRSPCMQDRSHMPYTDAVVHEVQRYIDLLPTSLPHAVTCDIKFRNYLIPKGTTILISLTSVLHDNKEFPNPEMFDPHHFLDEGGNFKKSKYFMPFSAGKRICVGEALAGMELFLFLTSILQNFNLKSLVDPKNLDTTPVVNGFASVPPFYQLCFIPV
Experiment: Inhibition of recombinant human CYP2C9 assessed as remaining enzyme activity using CYP2C9 green as substrate at 10 uM after 5 mins in presence of NADP by fluorescence plate reader analysis
Assay type: ADME
Details: recombinant human CYP2C9, probe CYP2C9 green, read-out: Activity

Q: For `CNC(=O)c1cc(Oc2ccc3nc(NC(=O)Nc4ccc(Cl)c(Cl)c4)sc3c2)ccn1`, which activity at 5 min, 10 µM is on record?
A: 90%

Test system: NCI-H322M
Experiment: Antiproliferative activity against human NCI-H322M cells assessed as cell growth at 10^-8 M after 48 hrs by sulforhodamine B assay
Assay type: functional
Details: read-out: Activity

Q: For `CNC(=O)c1cc(Oc2ccc3nc(NC(=O)Nc4ccc(Cl)c(Cl)c4)sc3c2)ccn1`, which growth at 0.01 µM is on record?
A: 90%

Test system: not listed separately
Experiment: Antiproliferative activity against human SF295 cells assessed as cell growth at 10^-8 M after 48 hrs by sulforhodamine B assay
Assay type: functional
Details: SF-295, 48 h, read-out: Activity

Q: For `CNC(=O)c1cc(Oc2ccc3nc(NC(=O)Nc4ccc(Cl)c(Cl)c4)sc3c2)ccn1`, which growth at 0.01 µM is on record?
A: 86%

Test system: not listed separately
Experiment: Antiproliferative activity against human SNB19 cells assessed as cell growth at 10^-8 M after 48 hrs by sulforhodamine B assay
Assay type: functional
Details: SNB-19, 48 h, read-out: Activity

Q: With `CNC(=O)c1cc(Oc2ccc3nc(NC(=O)Nc4ccc(Cl)c(Cl)c4)sc3c2)ccn1` as the compound, how does the growth at 0.01 µM read?
A: 98%

Test system: not listed separately
Experiment: Antiproliferative activity against human HL-60(TB) cells assessed as cell growth at 10^-6 M after 48 hrs by sulforhodamine B assay
Assay type: functional
Details: HL-60, 48 h, read-out: Activity

Q: Which growth at 1 µM does the source give for `CNC(=O)c1cc(Oc2ccc3nc(NC(=O)Nc4ccc(Cl)c(Cl)c4)sc3c2)ccn1` here?
A: 105%

Test system: NCI-H23
Experiment: Antiproliferative activity against human NCI-H23 cells assessed as cell growth at 10^-6 M after 48 hrs by sulforhodamine B assay
Assay type: functional
Details: NCI-H23, 48 h, read-out: Activity

Q: For `CNC(=O)c1cc(Oc2ccc3nc(NC(=O)Nc4ccc(Cl)c(Cl)c4)sc3c2)ccn1`, which growth at 1 µM is on record?
A: 88%

Test system: not listed separately
Experiment: Antiproliferative activity against human SW620 cells assessed as cell growth at 10^-6 M after 48 hrs by sulforhodamine B assay
Assay type: functional
Details: SW-620, 48 h, read-out: Activity

Q: With `CNC(=O)c1cc(Oc2ccc3nc(NC(=O)Nc4ccc(Cl)c(Cl)c4)sc3c2)ccn1` as the compound, how does the growth at 1 µM read?
A: 128%

Test system: not listed separately
Experiment: Antiproliferative activity against human SNB19 cells assessed as cell growth at 10^-6 M after 48 hrs by sulforhodamine B assay
Assay type: functional
Details: SNB-19, 48 h, read-out: Activity

Q: Which growth at 1 µM does the source give for `CNC(=O)c1cc(Oc2ccc3nc(NC(=O)Nc4ccc(Cl)c(Cl)c4)sc3c2)ccn1` here?
A: 100%

Test system: not listed separately
Experiment: Antiproliferative activity against human RPMI8226 cells assessed as cell growth at 10^-4 M after 48 hrs by sulforhodamine B assay
Assay type: functional
Details: RPMI-8226, 48 h, read-out: Activity

Q: Which growth at 100 µM does the source give for `CNC(=O)c1cc(Oc2ccc3nc(NC(=O)Nc4ccc(Cl)c(Cl)c4)sc3c2)ccn1` here?
A: 15%

Test system: NCI-H322M
Experiment: Antiproliferative activity against human NCI-H322M cells assessed as cell growth at 10^-4 M after 48 hrs by sulforhodamine B assay
Assay type: functional
Details: read-out: Activity

Q: Which growth at 100 µM does the source give for `CNC(=O)c1cc(Oc2ccc3nc(NC(=O)Nc4ccc(Cl)c(Cl)c4)sc3c2)ccn1` here?
A: 4%

Test system: not listed separately
Experiment: Antiproliferative activity against human HCT116 cells assessed as cell growth at 10^-4 M after 48 hrs by sulforhodamine B assay
Assay type: functional
Details: HCT-116, 48 h, read-out: Activity

Q: Which growth at 100 µM does the source give for `CNC(=O)c1cc(Oc2ccc3nc(NC(=O)Nc4ccc(Cl)c(Cl)c4)sc3c2)ccn1` here?
A: -54%

Test system: not listed separately
Experiment: Antiproliferative activity against human SF268 cells assessed as cell growth at 10^-4 M after 48 hrs by sulforhodamine B assay
Assay type: functional
Details: SF-268, 48 h, read-out: Activity

Q: With `CNC(=O)c1cc(Oc2ccc3nc(NC(=O)Nc4ccc(Cl)c(Cl)c4)sc3c2)ccn1` as the compound, how does the growth at 100 µM read?
A: -57%

Test system: not listed separately
Experiment: Antiproliferative activity against human SNB75 cells assessed as cell growth at 10^-4 M after 48 hrs by sulforhodamine B assay
Assay type: functional
Details: SNB-75, 48 h, read-out: Activity

Q: With `CNC(=O)c1cc(Oc2ccc3nc(NC(=O)Nc4ccc(Cl)c(Cl)c4)sc3c2)ccn1` as the compound, how does the growth at 100 µM read?
A: -75%

Test system: not listed separately
Experiment: Antiproliferative activity against human SKOV3 cells assessed as cell growth at 10^-8 M after 48 hrs by sulforhodamine B assay
Assay type: functional
Details: SK-OV-3, 48 h, read-out: Activity

Q: For `CNC(=O)c1cc(Oc2ccc3nc(NC(=O)Nc4ccc(Cl)c(Cl)c4)sc3c2)ccn1`, which growth at 0.01 µM is on record?
A: 110%

Test system: A498
Experiment: Antiproliferative activity against human A498 cells assessed as cell growth at 10^-8 M after 48 hrs by sulforhodamine B assay
Assay type: functional
Details: A498, 48 h, read-out: Activity

Q: Which growth at 0.01 µM does the source give for `CNC(=O)c1cc(Oc2ccc3nc(NC(=O)Nc4ccc(Cl)c(Cl)c4)sc3c2)ccn1` here?
A: 101%

Test system: SK-MEL-5
Experiment: Antiproliferative activity against human SK-MEL-5 cells assessed as cell growth at 10^-6 M after 48 hrs by sulforhodamine B assay
Assay type: functional
Details: SK-MEL-5, 48 h, read-out: Activity

Q: Which growth at 1 µM does the source give for `CNC(=O)c1cc(Oc2ccc3nc(NC(=O)Nc4ccc(Cl)c(Cl)c4)sc3c2)ccn1` here?
A: 94%

Test system: not listed separately
Experiment: Antiproliferative activity against human OVCAR3 cells assessed as cell growth at 10^-6 M after 48 hrs by sulforhodamine B assay
Assay type: functional
Details: OVCAR-3, 48 h, read-out: Activity

Q: With `CNC(=O)c1cc(Oc2ccc3nc(NC(=O)Nc4ccc(Cl)c(Cl)c4)sc3c2)ccn1` as the compound, how does the growth at 1 µM read?
A: 99%

Test system: MDA-MB-435
Experiment: Antiproliferative activity against human MDA-MB-435 cells assessed as cell growth at 10^-4 M after 48 hrs by sulforhodamine B assay
Assay type: functional
Details: MDA-MB-435, 48 h, read-out: Activity

Q: For `CNC(=O)c1cc(Oc2ccc3nc(NC(=O)Nc4ccc(Cl)c(Cl)c4)sc3c2)ccn1`, which growth at 100 µM is on record?
A: -30%

Test system: 786-0
Experiment: Antiproliferative activity against human 786-0 cells assessed as cell growth at […] after 48 hrs by sulforhodamine B assay
Assay type: functional
Details: 786-0, 48 h, read-out: Activity

Q: Which growth at 100 µM does the source give for `CNC(=O)c1cc(Oc2ccc3nc(NC(=O)Nc4ccc(Cl)c(Cl)c4)sc3c2)ccn1` here?
A: -67%

Test system: not listed separately
Experiment: Antiproliferative activity against human TK10 cells assessed as cell growth at 10^-4 M after 48 hrs by sulforhodamine B assay
Assay type: functional
Details: TK-10, 48 h, read-out: Activity

Q: Which growth at 100 µM does the source give for `CNC(=O)c1cc(Oc2ccc3nc(NC(=O)Nc4ccc(Cl)c(Cl)c4)sc3c2)ccn1` here?
A: -14%
